Assay results taken from US10071964B2, “Disubstituted piperidines as butyrylcholinesterase inhibitors” (priority 2015, dated 2018).

Columns and labels:
[1] = molecular target: T1, murine acetylcholinesterase (mAChE) (Mus musculus, UniProt P21836); assay: Ellman's method enzyme assay, mAChE inhibition; assay type: biochemical; details: for % inhibition at 10 μM mAChE: 10 μM compound, n.i. = no inhibition
T1 sequence (P21836 32-614): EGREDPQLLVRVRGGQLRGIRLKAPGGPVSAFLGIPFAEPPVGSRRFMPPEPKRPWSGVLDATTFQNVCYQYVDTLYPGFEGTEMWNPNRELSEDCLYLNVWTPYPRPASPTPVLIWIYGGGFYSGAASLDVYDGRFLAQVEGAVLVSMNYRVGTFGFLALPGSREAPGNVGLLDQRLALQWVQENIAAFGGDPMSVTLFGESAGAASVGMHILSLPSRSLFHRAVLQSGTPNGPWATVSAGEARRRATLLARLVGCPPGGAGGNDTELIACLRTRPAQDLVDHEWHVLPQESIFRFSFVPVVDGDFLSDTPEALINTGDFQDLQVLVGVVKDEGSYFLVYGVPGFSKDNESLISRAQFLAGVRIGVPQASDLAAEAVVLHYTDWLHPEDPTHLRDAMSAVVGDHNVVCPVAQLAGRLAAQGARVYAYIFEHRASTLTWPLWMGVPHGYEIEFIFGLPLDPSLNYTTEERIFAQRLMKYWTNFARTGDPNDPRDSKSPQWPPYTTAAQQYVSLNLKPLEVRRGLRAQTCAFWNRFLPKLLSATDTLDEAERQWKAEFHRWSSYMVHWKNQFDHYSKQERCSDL
Description: (§1) Ellman's method was used to evaluate the inhibitory activities of the synthesized compounds against the cholinesterases. […] As a substrate butyrylthiocholine (BTC) and acetylthiocholine (ATC) iodides were used for BChE and AChE, respectively. […] For the reference sample, 1% dimethylsulfoxide (DMSO) replaced the inhibitor's solution.
(§2) Potency of the inhibitor is expressed as a residual activity (RA) of the enzyme at the employed inhibitor's concentration, half maximal inhibitory concentration (IC50 value) and as an inhibition constant (Ki).
(§3) The enzyme reactions were carried out using murine acetylcholinesterase (mAChE) and human recombinant butyrylcholinesterase (huBChE). From the lyophilised powders of both enzymes, the solutions were obtained by dissolution of the powders in 10 mM MES buffer (pH 6.5) to reach the concentration of 4 mg/mL. The concentrated enzyme solution was diluted prior use in 100 mM phosphate buffer (pH 8.0) to reach the activity of the enzyme in the assay of approximately 500 mAu per minute.
(§4) ATCI in BTCI solutions were prepared in 100 mM phosphate buffer (pH 8.0) to reach the final concentration in the assay of 500 μM.
Stock solutions of compounds were prepared in DMSO in a concentration of 10 mM.
(§5) Enzyme solutions were prepared by dilution of the concentrated stocks in the 100 mM phosphate buffer (pH 8.0). […] Enzyme reaction was started with the addition of the substrate. The DMSO concentration in the test solution was always 1%. […] For the determination of blank (b) the phosphate buffer replaced the enzyme solution. Initial velocity of the enzyme reaction (v0) was determined from the linear curve of the enzyme reaction product formation, where each measurement was performed in triplicate. For the initial screening of inhibition ability, […] concentration of the investigated compounds was used. Compounds were pipetted in the corresponding wells to reach the final concentration of 10 μM. Tested compound and the enzyme solution were first preincubated for 300s, followed by the substrate addition, which triggered the enzyme reaction. The initial velocity in presence of the inhibitor was further calculated (vi). The inhibition capability was expressed as residual activity (RA=(vi−b)/(vo−b)).
(§6) IC50 values were determined by plotting the RA versus the concentration of the investigated compound.
(§7) Where X is a common logarithm of the concentration of the inhibitor and Y is the residual activity. For solving the equation Gnuplot software and an in-house python script were used. For the determination of the inhibition constant full progress curves of the product formation in presence and absence of investigated compounds were monitored. The curves were submitted in the ENZO web-application, which allows solving of numerical equations.

[2] = molecular target: human recombinant butyrylcholinesterase (huBChE) (Homo sapiens, UniProt P06276); assay: biochemical; details: read-out: IC50 ± STD (μM) huBChE
Description: as §1, §2, §3, §4, §5, §6, §7

Chain of human recombinant butyrylcholinesterase (huBChE) (P06276 29-602): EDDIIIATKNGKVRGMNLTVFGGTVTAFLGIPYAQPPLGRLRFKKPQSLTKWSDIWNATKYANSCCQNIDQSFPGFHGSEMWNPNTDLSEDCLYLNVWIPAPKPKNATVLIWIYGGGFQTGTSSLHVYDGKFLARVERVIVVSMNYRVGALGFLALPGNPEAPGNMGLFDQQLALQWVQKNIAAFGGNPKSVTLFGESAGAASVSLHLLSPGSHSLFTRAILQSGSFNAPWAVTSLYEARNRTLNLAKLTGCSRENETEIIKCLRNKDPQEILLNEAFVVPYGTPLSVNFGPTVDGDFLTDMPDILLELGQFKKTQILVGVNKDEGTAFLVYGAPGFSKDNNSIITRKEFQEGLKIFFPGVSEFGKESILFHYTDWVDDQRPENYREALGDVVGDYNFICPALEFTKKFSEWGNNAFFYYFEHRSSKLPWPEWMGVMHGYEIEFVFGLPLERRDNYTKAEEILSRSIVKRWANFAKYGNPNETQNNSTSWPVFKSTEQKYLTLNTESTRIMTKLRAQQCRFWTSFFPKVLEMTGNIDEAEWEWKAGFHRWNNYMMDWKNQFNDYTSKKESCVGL

| Compound | inhibition at 10 µM ([1]; read-out: % inhibition ± STD at 10 μM inhibitor mAChE, Table 1, formula (I), 10 μM inhibitor) [%] | % inhibition at 10 μM mAChE ([1]; Table 2, formula (II)) | IC50 [2] [µM] | IC50 ([1]; Table 2, formula (II), substrate ATCI 500 μM, read-out: IC50 ± STD (μM) mAChE) [µM] |
| --- | --- | --- | --- | --- |
| CN(C)CCN(CC1CCCN(C2Cc3ccccc3C2)C1)C(=O)c1ccc2ccccc2c1 (stereo not drawn) | 17.4 ± 3.7 |  |  |  |
| COCCN(CC1CCCN(C2Cc3ccccc3C2)C1)S(=O)(=O)c1ccc2ccccc2c1 (stereo not drawn) |  | 72 ± 0.86% |  |  |
| COCCN(CC1CCCN(C2Cc3ccccc3C2)C1)S(=O)(=O)c1ccccc1 (stereo not drawn) |  | n.i. | 0.343 ± 0.005 |  |
| COCCN(CC1CCCN(C2Cc3ccccc3C2)C1)S(=O)(=O)c1ccc(C)cc1 (stereo not drawn) |  | n.i. | 0.279 ± 0.008 |  |
| COCCN(CC1CCCN(C2Cc3ccccc3C2)C1)S(=O)(=O)c1ccc(F)cc1 (stereo not drawn) |  | n.i. | 0.887 ± 0.08 |  |
| COCCN(CC1CCCN(C2Cc3ccccc3C2)C1)S(=O)(=O)c1ccc(OC)cc1 (stereo not drawn) |  | n.i. | 0.482 ± 0.066 |  |
| COCCN(CC1CCCN(C2Cc3ccccc3C2)C1)S(=O)(=O)c1ccc([N+](=O)[O-])cc1 (stereo not drawn) |  | n.i. | 3.47 ± 0.052 |  |
| COCCN(CC1CCCN(C2Cc3ccccc3C2)C1)S(=O)(=O)c1ccc(N)cc1 (stereo not drawn) |  | n.i. | 0.314 ± 0.036 |  |
| COCCN(CC1CCCN(C2Cc3ccccc3C2)C1)S(=O)(=O)c1ccc(NC(C)=O)cc1 (stereo not drawn) |  | n.i. | 0.321 ± 0.035 |  |
| COCCN(CC1CCCN(C2Cc3ccccc3C2)C1)S(=O)(=O)c1cccc([N+](=O)[O-])c1 (stereo not drawn) |  |  | 3.61 ± 0.528 |  |
| COCCN(CC1CCCN(C2Cc3ccccc3C2)C1)S(=O)(=O)c1cccc(N)c1 (stereo not drawn) |  | n.i. |  |  |
| COCCN(CC1CCCN(C2Cc3ccccc3C2)C1)S(=O)(=O)c1cccc(NC(C)=O)c1 (stereo not drawn) |  | n.i. | 8.21 ± 0.601 |  |
| COCCN(CC1CCCN(C2Cc3ccccc3C2)C1)S(=O)(=O)c1ccccc1C(=O)OC (stereo not drawn) |  | n.i. | 0.359 ± 0.018 |  |
| CNC(=O)c1ccccc1S(=O)(=O)N(CCOC)CC1CCCN(C2Cc3ccccc3C2)C1 (stereo not drawn) |  | n.i. | 3.23 ± 0.492 |  |
| COCCN(CC1CCCN(Cc2ccccc2)C1)S(=O)(=O)c1ccc2ccccc2c1 (stereo not drawn) |  | n.i. |  |  |
| COCCN(CC1CCCN(Cc2ccc(F)cc2)C1)S(=O)(=O)c1ccc2ccccc2c1 (stereo not drawn) |  | n.i. | 0.231 ± 0.006 |  |
| COCCN(CC1CCCN(Cc2cccc(F)c2)C1)S(=O)(=O)c1ccc2ccccc2c1 (stereo not drawn) |  | n.i. | 0.0491 ± 0.0012 |  |
| COCCN(CC1CCCN(Cc2ccc(C#N)cc2)C1)S(=O)(=O)c1ccc2ccccc2c1 (stereo not drawn) |  | n.i. | 1.46 ± 0.115 |  |
| COCCN(CC1CCCN(Cc2cccc(C#N)c2)C1)S(=O)(=O)c1ccc2ccccc2c1 (stereo not drawn) |  | n.i. | 0.338 ± 0.008 |  |
| COCCN(CC1CCCN(Cc2ccc(N(C)C)cc2)C1)S(=O)(=O)c1ccc2ccccc2c1 (stereo not drawn) |  | n.i. | 0.311 ± 0.022 |  |
| O=S(=O)(NCC1CCCN(Cc2ccccc2)C1)c1ccc2ccccc2c1 (stereo not drawn) |  | n.i. |  |  |

| Compound | inhibition at 10 µM ([1]; read-out: % inhibition ± STD at 10 μM inhibitor mAChE, Table 1, formula (I), 10 μM inhibitor) [%] | % inhibition at 10 μM mAChE ([1]; Table 2, formula (II)) | IC50 [2] [µM] | IC50 ([1]; Table 2, formula (II), substrate ATCI 500 μM, read-out: IC50 ± STD (μM) mAChE) [µM] |
| --- | --- | --- | --- | --- |
| CN(CC1CCCN(Cc2ccccc2)C1)S(=O)(=O)c1ccc2ccccc2c1 (stereo not drawn) |  | n.i. |  |  |
| CCN(CC1CCCN(Cc2ccccc2)C1)S(=O)(=O)c1ccc2ccccc2c1 (stereo not drawn) |  | n.i. | 0.038 ± 0.0026 |  |
| CCCN(CC1CCCN(Cc2ccccc2)C1)S(=O)(=O)c1ccc2ccccc2c1 (stereo not drawn) |  | n.i. | 0.0428 ± 0.0064 |  |
| CCCCN(CC1CCCN(Cc2ccccc2)C1)S(=O)(=O)c1ccc2ccccc2c1 (stereo not drawn) |  | n.i. | 0.0355 ± 0.0044 |  |
| COCCCN(CC1CCCN(Cc2ccccc2)C1)S(=O)(=O)c1ccc2ccccc2c1 (stereo not drawn) |  | n.i. |  |  |
| COCCN(CC1CCN(Cc2ccccc2)CC1)S(=O)(=O)c1ccc2ccccc2c1 |  | n.i. |  |  |
| COCCCN(CC1CCN(Cc2ccccc2)CC1)S(=O)(=O)c1ccc2ccccc2c1 |  | n.i. |  |  |
| O=S(=O)(NCC1CCN(Cc2ccccc2)CC1)c1ccc2ccccc2c1 |  |  |  | 1.78 ± 0.085 |
| COCCN(CC1CCN(C2Cc3ccccc3C2)CC1)S(=O)(=O)c1ccc2ccccc2c1 |  | n.i. |  |  |
| COCCCN(CC1CCN(C2Cc3ccccc3C2)CC1)S(=O)(=O)c1ccc2ccccc2c1 |  | n.i. |  |  |
| Cc1cccc(CN2CCCC(CNS(=O)(=O)c3ccc4ccccc4c3)C2)c1 (stereo not drawn) |  | 57 ± 3.55% | 0.287 ± 0.022 |  |
| O=S(=O)(NCC1CCCN(Cc2ccc(F)cc2)C1)c1ccc2ccccc2c1 (stereo not drawn) |  | 75 ± 4.19% | 0.583 ± 0.043 |  |
| Cc1nc(CN2CCCC(CNS(=O)(=O)c3ccc4ccccc4c3)C2)cs1 (stereo not drawn) |  | 71 ± 3.68% | 0.366 ± 0.031 |  |
| O=S(=O)(NCC1CCCN(Cc2ccc(F)cc2Cl)C1)c1ccc2ccccc2c1 (stereo not drawn) |  | 73 ± 3.60% | 0.347 ± 0.06 |  |
| O=S(=O)(NCC1CCCN(Cc2ccncc2)C1)c1ccc2ccccc2c1 (stereo not drawn) |  | n.i. | 1.67 ± 0.256 |  |
| N#Cc1ccc(CN2CCCC(CNS(=O)(=O)c3ccc4ccccc4c3)C2)cc1 (stereo not drawn) |  | n.i. | 2.09 ± 0.328 |  |
| CN(CC1CCCN(Cc2ccc(F)cc2)C1)S(=O)(=O)c1ccc2ccccc2c1 (stereo not drawn) |  | n.i. | 0.427 ± 0.044 |  |
| COCCN(CC1CCCN(Cc2ccccc2)C1)S(=O)(=O)c1cccc2ccccc12 (stereo not drawn) |  | n.i. | 0.059 ± 0.0054 |  |
| COCCN(CC1CCCN(Cc2ccccc2)C1)S(=O)(=O)c1ccc2ccc(OC)cc2c1 (stereo not drawn) |  | n.i. | 0.156 ± 0.033 |  |
| COCCCN(CC1CCCN(Cc2ccccc2)C1)S(=O)(=O)c1ccc2ccc(OCC#N)cc2c1 (stereo not drawn) |  | n.i. | 0.113 ± 0.008 |  |
